Source: patent US4731486A, “Hydroformylation using low volatile phosphine ligands” (Union Carbide Corporation, priority 1986, dated 1988)
Counter-ions that a name gives are not always drawn.

Assays:
[1] = Batch hydroformylation of propylene in stirred autoclave (Examples 1, 2, 11, 14, 19); conditions: 200 ppm Rh, about 120 mole equivalents ligand, 100° C., 90 psia 1:1:1 H2:CO:C3H6; for Linear/Branched Aldehyde Mole Ratio: Texanol/Carbowax PEG-600: Li 100:0, K 9:1, Rb 8:1, Ca 20:1, Ba 7:1; for Reaction Rate (C4 aldehydes): Texanol/Carbowax PEG-600: Li 100:0, K 9:1, Rb 8:1, Cs 7:1, Ca 20:1, Ba 7:1, Sr 18:1
Method: A series of various rhodium complex catalyst precursor solutions consisting essentially of the solubilized reaction product of rhodium dicarbonyl acetylacetonate and various monosulfonated triphenylphosphine metal salt ligands were prepared and employed to hydroformylate propylene into C4 aldehydes in the following manner.
Each rhodium catalytic precursor solution so prepared was then employed to hydroformylate propylene in a magnetically stirred, 100 mL capacity, stainless steel autoclave which was attached to a gas manifold for introducing gases to the desired partial pressures. The autoclave was also equipped with a pressure calibrator for determining reaction pressure to ±0.01 psia. and a platinum resistance thermometer for determining reactor solution temperatures to ±0.10° C. The reactor was heated externally by two 300 watt heating bands. The reactor solution temperature was controlled by a platinum resistance sensor connected to an external proportional temperature controller for controlling the temperature of the external band heaters.
In each non-aqueous hydroformylation reaction, about 15 milliliters (about 14 grams) of the rhodium catalytic precursor solution so prepared was charged to the autoclave reactor under nitrogen and heated to the reaction temperature employed (as given in Table 1 below). The reactor was then vented down to 5 psig. and a premixed gas mixture of 1:1:1 carbon monoxide:hydrogen:propylene was introduced into the reactor via the gas manifold (partial pressures given in Table 1) and the propylene so hydroformylated.
A comparison of the catalytic activity of aqueous and non-aqueous solutions of monosulfonated triphenylphosphine sodium salt ligand promoted catalysts in hydroformylating various molecular weight alphe-olefins was determined as follows.
Both the aqueous and non-aqueous hydroformylation reactions were conducted under identical conditions with regard to temperature, rhodium and ligand concentration, hydrogen and carbon monoxide partial pressure and olefin concentration.

[2] = Batch hydroformylation of dodecene-1 (Examples 13, 14, 18, 19); conditions: heptanal, 100° C., 200 ppm Rh, 60 psia 2:1 H2:CO
[3] = Continuous single pass hydroformylation of butene-1 (Examples 3, 4, 5, 7, 12)
Method: Continuous hydroformylation of butene-1 a monosulfonated triphenylphosphine metal salt ligand was conducted in the following manner.
The non-aqueous hydroformylation was conducted in a glass reactor operating in a continuous single pass butene-1 hydroformylation mode. The reactor consisted of a three-ounce pressure bottle submersed in an oil bath with a lass front for viewing. About 20-mL of a freshly prepared rhodium catalytic precursor solution was charged to the reactor with a syringe, after purging the system with nitrogen. […] After closing the reactor, the system was again purged with nitrogen and the oil bath was heated to furnish the desired hydroformylation reaction temperature. The hydroformylation reaction was conducted at a total gas pressure of about 160 psig., the partial pressures of hydrogen, carbon monoxide, and butene-1 being given in Table 3 below, the remainder being nitrogen and aldehyde product.
The flows of the feed gases (carbon monoxide, hydrogen, butene-1 and nitrogen) were controlled individually with mass flow meters and the feed gases dispersed into the precursor solution via microporous stainless steel spargers. The unreacted portion of the feed gases was stripped out with the product C5 aldehydes and the outlet gas analyzed over about 12 days of continuous operation.

[4] = Solubility of metal salt ligands in different aldehydes; assay type: physicochemical
[5] = Solubility of metal salt ligands in nonanal with added solubilizing agent; assay type: physicochemical; conditions: 25° C., nonanal with 1:4 CARBOWAX TPEG-900/TERGITOL NP-9
[6] = CARBOWAX PEG-600, two liquid organic layers
[7] = TERGITOL 15-S-7/Carbowax TPEG-990 (3:1)
[8] = TERGITOL 24-L-75N/CARBOWAX TPEG-990 (4:1)
[9] = Texanol/PEG-600 7:1, day 1.0, 101 °C, CO 18, H2 70, C4H8 11 psia
[10] = Texanol/PEG-600 7:1, day 1.8, 101 °C, CO 16, H2 62, C4H8 14 psia
[11] = Texanol/PEG-600 7:1, day 5.0, 101 °C, CO 12, H2 66, C4H8 19 psia
[12] = Texanol/PEG-600 7:1, day 5.9, 101 °C, CO 13, H2 66, C4H8 20 psia
[13] = Texanol/PEG-600 7:1, day 6.9, 101 °C, CO 14, H2 62, C4H8 22 psia
[14] = Texanol/PEG-600 7:1, day 7.0 (so in the source), […], CO 18, H2 62, C4H8 22 psia
[15] = Texanol/PEG-600 7:1, day 7.9, 101 °C, CO 16, H2 55, C4H8 24 psia
[16] = Texanol/PEG-600 7:1, day 9.0, […], CO 18, H2 60, C4H8 23 psia
[17] = Texanol/PEG-600 7:1, day 11.0, […], CO 19, H2 63, C4H8 21 psia
[18] = Texanol/PEG-600 7:1, day 11.7, […], CO 20, H2 63, C4H8 21 psia
[19] = Texanol/PEG-600 7:1, day 12.6, 103 °C, CO 20, H2 63, C4H8 22 psia
[20] = Texanol, day 0.8, 101 °C, CO 18, H2 48, C4H8 19
[21] = Texanol, day 4.0, 101 °C, CO 17, H2 52, C4H8 49
[22] = Texanol, day 6.0, 101 °C, CO 17, H2 52, C4H8 50
[23] = Texanol, day 6.9, 101 °C, CO 19, H2 50, C4H8 41
[24] = Texanol, day 8.0, […], CO 18, H2 56, C4H8 38
[25] = Texanol, day 9.0, […], CO 18, H2 57, C4H8 38
[26] = Texanol, day 10.0, […], CO 18, H2 57, C4H8 38
[27] = Texanol, day 10.7, […], CO 18, H2 57, C4H8 38
[28] = Texanol, day 11.6, 103 °C, CO 18, H2 57, C4H8 38

O=S(=O)(O)c1cccc(P(c2ccccc2)c2ccccc2)c1 [TPPMS-Ba, monosulfonated triphenylphosphine barium salt]
Linear/Branched Aldehyde Mole Ratio [1]: 4.1
Reaction Rate (C4 aldehydes) [1]: 1.43 Gmoles/L/Hr
Linear/Branched Aldehyde Mole Ratio [2, 6]: 10.0
Reaction Rate [2, 6]: 1.22 G moles/L/hr
Linear/Branched Aldehyde Mole Ratio [2, 7]: 9.4
Reaction Rate [2, 7]: 0.45 G moles/L/hr
Linear/Branched Aldehyde Mole Ratio [2, 8]: 10.9
Reaction Rate [2, 8]: 0.76 G moles/L/hr
Linear/Branched Aldehyde Mole Ratio [3, 9]: 6.91
Rate (C5 aldehydes), daily average [3, 9]: 2.07 gmoles/L/Hr
Linear/Branched Aldehyde Mole Ratio [3, 10]: 7.10
Rate (C5 aldehydes), daily average [3, 10]: 2.10 gmoles/L/Hr
Linear/Branched Aldehyde Mole Ratio [3, 11]: 7.12
Rate (C5 aldehydes), daily average [3, 11]: 2.51 gmoles/L/Hr
Linear/Branched Aldehyde Mole Ratio [3, 12]: 7.03
Rate (C5 aldehydes), daily average [3, 12]: 2.52 gmoles/L/Hr
Linear/Branched Aldehyde Mole Ratio [3, 13]: 6.32
Rate (C5 aldehydes), daily average [3, 13]: 2.71 gmoles/L/Hr
Linear/Branched Aldehyde Mole Ratio [3, 14]: 6.02
Rate (C5 aldehydes), daily average [3, 14]: 2.60 gmoles/L/Hr
Linear/Branched Aldehyde Mole Ratio [3, 15]: 6.16
Rate (C5 aldehydes), daily average [3, 15]: 2.71 gmoles/L/Hr
Linear/Branched Aldehyde Mole Ratio [3, 16]: 6.01
Rate (C5 aldehydes), daily average [3, 16]: 2.73 gmoles/L/Hr
Linear/Branched Aldehyde Mole Ratio [3, 17]: 6.20
Rate (C5 aldehydes), daily average [3, 17]: 2.46 gmoles/L/Hr
Linear/Branched Aldehyde Mole Ratio [3, 18]: 6.14
Rate (C5 aldehydes), daily average [3, 18]: 2.37 gmoles/L/Hr
Linear/Branched Aldehyde Mole Ratio [3, 19]: 5.85
Rate (C5 aldehydes), daily average [3, 19]: 2.30 gmoles/L/Hr
Metal Salt Solubility ([4]; Butyraldehyde, 60 °C): 0.6 Wt. %
Metal Salt Solubility ([4]; Heptanal, 80 °C): 0.2 Wt. %
Metal Salt Solubility ([4]; Nonanal, 80 °C): 0.2 Wt. %
Metal Salt Solubility ([4]; Propionaldehyde, 35 °C): 0.5 Wt. %
Metal Salt Solubility ([4]; Tridecanal, 80 °C): 0.3 Wt. %
Metal Salt Solubility ([4]; Valeraldehyde, 80 °C): 0.1 Wt. %
Metal Salt Solubility [5]: 33 Wt. %

O=S(=O)(O)c1cccc(P(c2ccccc2)c2ccccc2)c1 [TPPMS-Li, monosulfonated triphenylphosphine lithium salt]
Linear/Branched Aldehyde Mole Ratio ([1]; lithium salt): 6.3
Reaction Rate (C4 aldehydes) ([1]; lithium salt): 0.35 Gmoles/L/Hr
Linear/Branched Aldehyde Mole Ratio [3, 20]: 30.34
Rate (C5 aldehydes), daily average [3, 20]: 1.02 gmoles/L/Hr
Linear/Branched Aldehyde Mole Ratio [3, 21]: 11.20
Rate (C5 aldehydes), daily average [3, 21]: 1.25 gmoles/L/Hr
Rate (C5 aldehydes), daily average ([3]; Texanol, day 4.8, 101 °C, CO 17, H2 52, C4H8 50): 1.19 gmoles/L/Hr
Linear/Branched Aldehyde Mole Ratio [3, 22]: 2.98
Rate (C5 aldehydes), daily average [3, 22]: 1.27 gmoles/L/Hr
Linear/Branched Aldehyde Mole Ratio [3, 23]: 31.75
Rate (C5 aldehydes), daily average [3, 23]: 1.28 gmoles/L/Hr
Linear/Branched Aldehyde Mole Ratio [3, 24]: 40.30
Rate (C5 aldehydes), daily average [3, 24]: 1.28 gmoles/L/Hr
Linear/Branched Aldehyde Mole Ratio [3, 25]: 28.90
Rate (C5 aldehydes), daily average [3, 25]: 1.30 gmoles/L/Hr
Linear/Branched Aldehyde Mole Ratio [3, 26]: 29.63
Rate (C5 aldehydes), daily average [3, 26]: 1.27 gmoles/L/Hr
Linear/Branched Aldehyde Mole Ratio [3, 27]: 37.18
Rate (C5 aldehydes), daily average [3, 27]: 1.27 gmoles/L/Hr
Linear/Branched Aldehyde Mole Ratio [3, 28]: 30.18
Rate (C5 aldehydes), daily average [3, 28]: 1.21 gmoles/L/Hr
Metal Salt Solubility ([4]; Butyraldehyde, 60 °C, lithium salt): 0.5 Wt. %
Metal Salt Solubility ([4]; Heptanal, 80 °C, lithium salt): < 0.7 Wt. %
Metal Salt Solubility ([4]; Nonanal, 80 °C, lithium salt): < 0.5 Wt. %
Metal Salt Solubility ([4]; Propionaldehyde, 35 °C, lithium salt): 8.8 Wt. %
Metal Salt Solubility ([4]; Tridecanal, 80 °C, lithium salt): < 0.5 Wt. %
Metal Salt Solubility ([4]; Valeraldehyde, 80 °C, lithium salt): < 0.5 Wt. %
Metal Salt Solubility ([5]; lithium salt): 12 Wt. %
